This is an account of results in patent US9403823B2, “Protein kinase inhibitors” (ORIBASE PHARMA, priority 2012, dated 2016).

In general, inhibition refers to how much of the control response was suppressed. As usually defined, the EC50 is the concentration that produces a half-maximal response.

In assay [1] the target is T1, FGFR2 (Homo sapiens, UniProt P21802).
T1 construct: purchased Invitrogen
The assay is described as follows: In vitro kinase assay (Z'-LYTE), FGFR2. Type of assay: biochemical. Conditions: read-out: % of inhibition of the kinase compared to the control. How it is done: (§1) 1) In Vitro Kinase Assays (Table 10 to Table 21)
(§2) The inhibitory activity of the compounds on several kinases including BRAF, EGFR (ErbB1), EGFR (ErbB1) T790M L858R, FGFR2, KDR (VEGFR2), PDGFRA (PDGFR alpha), SRC and other was evaluated by Invitrogen using the Z′-LYTE® technology. Briefly, the Z′-LYTE® biochemical assay employs a fluorescence-based, coupled-enzyme format and is based on the differential sensitivity of phosphorylated and non-phosphorylated peptides to proteolytic cleavage. The peptide substrate is labeled with two fluorophores—one at each end—that make up a FRET pair. A ratiometric method, which calculates the ratio (the Emission Ratio) of donor emission to acceptor emission after excitation of the donor fluorophore at 400 nm, is used to quantitate reaction progress.
(§3) The compounds are screened in 1% DMSO (final) in the well. For 10 point titrations, 3-fold serial dilutions are conducted from the starting concentration. All Peptide/Kinase Mixtures are diluted to a 2× working concentration in the appropriate Kinase Buffer. All ATP Solutions are diluted to a 4× working concentration in Kinase Buffer (50 mM HEPES pH 7.5, 0.01% BRIJ-35, 10 mM MgCl2, 1 mM EGTA). ATP Km apparent is previously determined using a Z′-LYTE® assay.
(§4) Each compound was incubated at a concentration of 100 nM (excepted to test the activity against ABL and ABL T315I for which the compounds were incubated at a concentration of 10 μM) and the tables 10 to 21 summarize the results obtained showing the inhibitory power of a compound.

Assay [2] concerns the target T2, BRAF (Homo sapiens, UniProt P15056).
T2 construct: purchased Invitrogen
The assay is described as follows: In vitro kinase assay (Z'-LYTE), BRAF. Type of assay: biochemical. Conditions: read-out: % of inhibition of the kinase compared to the control. As to the method: as §1, §2, §3, §4

For assay [3], the target named is T3, EGFR (ErbB1) (Homo sapiens, UniProt P00533).
T3 construct: purchased Invitrogen
Briefly: In vitro kinase assay (Z'-LYTE), EGFR (ErbB1). Type of assay: biochemical. Conditions: read-out: % of inhibition of the kinase compared to the control. How it is done:
as §1, §2, §3, §4

The target of assay [4] is T4, KDR (VEGFR2) (Homo sapiens, UniProt P35968).
T4 construct: purchased Invitrogen
The assay is described as follows: In vitro kinase assay (Z'-LYTE), KDR (VEGFR2). Type of assay: biochemical. Conditions: read-out: % of inhibition of the kinase compared to the control. As to the method: as §1, §2, §3, §4

Assay [5] has as its target T5, PDGFRA (PDGFR alpha) (Homo sapiens, UniProt P16234).
T5 construct: purchased Invitrogen
Briefly: In vitro kinase assay (Z'-LYTE), PDGFRA. Format: biochemical. The following applies: read-out: % of inhibition of the kinase compared to the control. As to the method: as §1, §2, §3, §4

Assay [6] relates to HepG2 cell line. The assay is described as follows: In vitro cell proliferation assay (MTT), HepG2. Type of assay: cell-based. Conditions: Homo sapiens, read-out: EC50, anti-proliferative activity. As to the method:
(§5) 2) In Vitro Cell Proliferation Assays (Table 22 to Table 35)
(§6) Cancer cell lines (5×10^3 cells per well) or HUVEC (1×10^4 cells per well) or HRMEC (1×10^4 cells per well) were distributed in 96-well plates and incubating in duplicate with escalating concentrations (10 nM to 3 μM) of compounds for 72 hr. Cell proliferation was measured using MTT (3[4,5-dimethylthiazol-2-yl]-2,5-diphenyltetrazolium bromide).

In assay [7] the test system is HUVEC. The assay is described as follows: In vitro cell proliferation assay (MTT), HUVEC. Format: cell-based. The following applies: Homo sapiens, read-out: EC50, anti-proliferative activity. How it is done: as §5, §6
The target of assay [8] is T6, SRC (Homo sapiens, UniProt P12931).
T6 construct: purchased Invitrogen
Briefly: In vitro kinase assay (Z'-LYTE), SRC. Format: biochemical. The following applies: read-out: % of inhibition of the kinase compared to the control. How it is done:
as §1, §2, §3, §4

Molecules are shown by their SMILES. Read-outs that look alike come from different tables or passages of the source. A value given as a limit tells only on which side of the number the result lay.

T6 sequence (P12931 whole entry): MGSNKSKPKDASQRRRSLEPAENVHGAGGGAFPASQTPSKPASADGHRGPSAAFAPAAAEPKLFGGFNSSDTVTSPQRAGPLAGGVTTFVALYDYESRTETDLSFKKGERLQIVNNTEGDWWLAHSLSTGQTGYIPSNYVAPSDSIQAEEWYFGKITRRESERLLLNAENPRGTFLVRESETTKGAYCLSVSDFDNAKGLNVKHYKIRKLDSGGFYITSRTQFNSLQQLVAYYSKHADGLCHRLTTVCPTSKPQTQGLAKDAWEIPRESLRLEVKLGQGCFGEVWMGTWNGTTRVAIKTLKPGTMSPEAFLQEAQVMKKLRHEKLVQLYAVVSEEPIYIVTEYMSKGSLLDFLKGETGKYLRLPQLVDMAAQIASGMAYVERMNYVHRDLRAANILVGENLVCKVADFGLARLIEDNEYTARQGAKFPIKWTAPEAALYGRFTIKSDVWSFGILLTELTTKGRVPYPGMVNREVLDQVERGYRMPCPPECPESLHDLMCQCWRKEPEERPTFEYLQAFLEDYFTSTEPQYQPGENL
T4 sequence (P35968 20-1356): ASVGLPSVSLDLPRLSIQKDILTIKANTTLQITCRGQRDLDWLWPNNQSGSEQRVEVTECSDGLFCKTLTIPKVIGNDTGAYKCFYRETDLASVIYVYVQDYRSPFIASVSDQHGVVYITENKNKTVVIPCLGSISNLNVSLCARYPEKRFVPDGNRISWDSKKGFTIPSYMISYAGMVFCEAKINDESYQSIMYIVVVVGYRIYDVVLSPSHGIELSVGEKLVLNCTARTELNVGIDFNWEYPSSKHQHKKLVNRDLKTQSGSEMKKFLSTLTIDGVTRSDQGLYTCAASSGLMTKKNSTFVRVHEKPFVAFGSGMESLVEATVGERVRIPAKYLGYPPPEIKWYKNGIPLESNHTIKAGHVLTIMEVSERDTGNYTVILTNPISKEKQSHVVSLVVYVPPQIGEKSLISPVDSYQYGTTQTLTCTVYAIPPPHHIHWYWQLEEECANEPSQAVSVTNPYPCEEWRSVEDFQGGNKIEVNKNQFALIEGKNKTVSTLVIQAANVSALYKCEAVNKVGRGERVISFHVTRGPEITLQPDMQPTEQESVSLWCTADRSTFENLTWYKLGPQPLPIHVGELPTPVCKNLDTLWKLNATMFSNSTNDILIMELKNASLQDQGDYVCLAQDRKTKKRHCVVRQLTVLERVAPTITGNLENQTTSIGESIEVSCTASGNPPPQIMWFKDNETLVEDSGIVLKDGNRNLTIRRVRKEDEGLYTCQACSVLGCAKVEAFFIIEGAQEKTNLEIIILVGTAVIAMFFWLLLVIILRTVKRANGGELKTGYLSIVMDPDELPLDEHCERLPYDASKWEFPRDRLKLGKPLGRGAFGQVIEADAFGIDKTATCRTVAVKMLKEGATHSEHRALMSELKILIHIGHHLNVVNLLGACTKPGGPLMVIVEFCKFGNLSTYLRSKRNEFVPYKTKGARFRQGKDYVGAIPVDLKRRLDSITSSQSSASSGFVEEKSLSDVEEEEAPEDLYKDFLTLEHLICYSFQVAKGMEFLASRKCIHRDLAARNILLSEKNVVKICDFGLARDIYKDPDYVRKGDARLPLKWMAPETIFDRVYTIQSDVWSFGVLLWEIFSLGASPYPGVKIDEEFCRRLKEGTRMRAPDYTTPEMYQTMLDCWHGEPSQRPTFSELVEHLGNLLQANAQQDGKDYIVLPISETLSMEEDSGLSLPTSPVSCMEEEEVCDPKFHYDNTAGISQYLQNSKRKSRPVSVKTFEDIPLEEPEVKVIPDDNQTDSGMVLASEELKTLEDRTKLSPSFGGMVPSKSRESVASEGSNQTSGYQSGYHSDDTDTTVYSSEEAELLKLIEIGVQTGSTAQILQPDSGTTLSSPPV
T2 sequence (P15056 whole entry): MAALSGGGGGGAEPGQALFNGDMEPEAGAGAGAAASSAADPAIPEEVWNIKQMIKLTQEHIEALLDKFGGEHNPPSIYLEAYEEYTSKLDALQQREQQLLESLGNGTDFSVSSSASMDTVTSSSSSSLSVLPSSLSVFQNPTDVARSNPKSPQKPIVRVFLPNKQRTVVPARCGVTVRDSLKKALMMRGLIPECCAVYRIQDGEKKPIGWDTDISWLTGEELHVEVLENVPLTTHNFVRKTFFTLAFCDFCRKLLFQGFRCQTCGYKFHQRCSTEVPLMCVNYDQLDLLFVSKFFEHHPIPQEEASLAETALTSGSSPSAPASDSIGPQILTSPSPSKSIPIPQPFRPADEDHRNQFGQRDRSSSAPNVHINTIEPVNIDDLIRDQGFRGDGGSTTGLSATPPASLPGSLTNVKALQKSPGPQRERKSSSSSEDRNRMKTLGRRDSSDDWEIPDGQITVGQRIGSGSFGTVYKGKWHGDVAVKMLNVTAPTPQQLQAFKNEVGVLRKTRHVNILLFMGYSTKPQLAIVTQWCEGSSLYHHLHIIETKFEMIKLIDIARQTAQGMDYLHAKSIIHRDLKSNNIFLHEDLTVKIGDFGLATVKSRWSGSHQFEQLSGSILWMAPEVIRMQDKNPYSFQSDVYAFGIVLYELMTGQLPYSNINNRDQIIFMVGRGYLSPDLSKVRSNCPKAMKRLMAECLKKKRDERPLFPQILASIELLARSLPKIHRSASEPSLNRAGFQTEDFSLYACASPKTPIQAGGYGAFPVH
T3 sequence (P00533 25-1210): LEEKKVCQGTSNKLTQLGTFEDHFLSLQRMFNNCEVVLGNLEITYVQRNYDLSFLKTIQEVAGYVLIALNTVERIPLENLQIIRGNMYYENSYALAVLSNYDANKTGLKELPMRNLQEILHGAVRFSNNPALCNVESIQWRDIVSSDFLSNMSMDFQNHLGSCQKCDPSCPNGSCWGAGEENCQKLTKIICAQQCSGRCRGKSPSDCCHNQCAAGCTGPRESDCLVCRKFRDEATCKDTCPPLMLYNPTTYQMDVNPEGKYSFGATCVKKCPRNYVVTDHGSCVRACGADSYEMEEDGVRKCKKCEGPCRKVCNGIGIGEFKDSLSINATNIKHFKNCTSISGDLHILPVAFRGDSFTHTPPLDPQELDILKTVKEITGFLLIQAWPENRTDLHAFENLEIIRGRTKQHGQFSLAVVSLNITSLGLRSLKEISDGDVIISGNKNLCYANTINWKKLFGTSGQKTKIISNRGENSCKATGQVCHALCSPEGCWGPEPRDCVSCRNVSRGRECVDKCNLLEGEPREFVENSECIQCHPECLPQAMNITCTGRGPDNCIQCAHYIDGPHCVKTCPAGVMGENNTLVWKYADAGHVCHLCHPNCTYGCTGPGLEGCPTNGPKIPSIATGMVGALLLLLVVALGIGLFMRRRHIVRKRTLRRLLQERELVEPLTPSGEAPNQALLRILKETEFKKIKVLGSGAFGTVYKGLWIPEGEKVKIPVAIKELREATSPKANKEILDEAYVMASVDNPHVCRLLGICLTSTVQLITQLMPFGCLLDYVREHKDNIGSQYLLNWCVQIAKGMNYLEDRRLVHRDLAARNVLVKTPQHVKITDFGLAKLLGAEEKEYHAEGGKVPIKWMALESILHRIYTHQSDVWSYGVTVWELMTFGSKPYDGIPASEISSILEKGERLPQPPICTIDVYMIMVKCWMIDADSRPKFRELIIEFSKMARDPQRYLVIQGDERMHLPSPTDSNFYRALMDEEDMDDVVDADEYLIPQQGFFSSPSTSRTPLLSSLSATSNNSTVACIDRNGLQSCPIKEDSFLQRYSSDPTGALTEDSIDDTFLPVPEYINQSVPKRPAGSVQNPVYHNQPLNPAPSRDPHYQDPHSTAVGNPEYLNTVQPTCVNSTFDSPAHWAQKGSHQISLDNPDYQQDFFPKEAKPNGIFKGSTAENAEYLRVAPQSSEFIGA
T5 sequence (P16234 24-1089): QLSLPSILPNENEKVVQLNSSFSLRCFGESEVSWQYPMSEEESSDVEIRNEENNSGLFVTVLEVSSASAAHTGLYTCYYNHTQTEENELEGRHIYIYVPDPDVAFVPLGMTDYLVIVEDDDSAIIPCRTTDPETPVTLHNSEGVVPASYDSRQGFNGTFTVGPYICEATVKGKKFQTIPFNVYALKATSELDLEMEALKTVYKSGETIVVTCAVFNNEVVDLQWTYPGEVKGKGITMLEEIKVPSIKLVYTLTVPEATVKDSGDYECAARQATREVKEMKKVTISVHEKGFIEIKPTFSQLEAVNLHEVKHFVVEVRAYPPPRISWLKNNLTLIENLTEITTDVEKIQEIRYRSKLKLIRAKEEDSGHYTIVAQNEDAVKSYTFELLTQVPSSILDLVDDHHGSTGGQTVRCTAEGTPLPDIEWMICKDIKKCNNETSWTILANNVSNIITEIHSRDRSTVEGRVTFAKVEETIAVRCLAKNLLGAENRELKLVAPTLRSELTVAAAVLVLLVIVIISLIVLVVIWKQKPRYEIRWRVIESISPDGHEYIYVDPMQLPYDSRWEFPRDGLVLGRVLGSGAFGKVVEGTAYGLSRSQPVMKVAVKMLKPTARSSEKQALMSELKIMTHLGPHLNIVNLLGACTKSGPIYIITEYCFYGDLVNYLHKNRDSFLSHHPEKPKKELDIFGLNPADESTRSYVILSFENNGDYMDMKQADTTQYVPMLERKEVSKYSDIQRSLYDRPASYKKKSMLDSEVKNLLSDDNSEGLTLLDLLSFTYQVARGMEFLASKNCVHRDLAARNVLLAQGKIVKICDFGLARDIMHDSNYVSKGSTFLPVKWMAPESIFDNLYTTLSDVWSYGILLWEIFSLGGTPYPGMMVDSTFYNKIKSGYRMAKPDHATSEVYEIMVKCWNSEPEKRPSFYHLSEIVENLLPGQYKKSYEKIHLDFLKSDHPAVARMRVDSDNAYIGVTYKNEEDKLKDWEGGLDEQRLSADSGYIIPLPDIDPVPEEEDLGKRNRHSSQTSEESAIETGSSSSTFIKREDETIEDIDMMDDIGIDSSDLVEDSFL

Take `Cc1ccc(NC(=O)c2ccc(CN3CCN(C)CC3)c(C(F)(F)F)c2)cc1C(=O)Nc1cnc2[nH]c(C(=O)O)cc2c1` [OR0810, 5-{2-Methyl-5-[4-(4-methyl-piperazin-1-ylmethyl)-3-trifluoromethyl-benzoylamino]-benzoylamino}-1H-pyrrolo[2,3-b]pyridine-2-carboxylic acid]: the inhibition at 0.1 µM in assay [1] was not below 50%; in assay [2], less than 50%; in assay [3], not below 50%; in assay [4] it was not below 50%.

With `Cc1ccc(NC(=O)c2ccc(CN3CC[C@H](N(C)C)C3)c(C(F)(F)F)c2)cc1CNc1cnc2[nH]c(C(=O)O)cc2c1` [OR0814, 5-{5-[4-((S)-3-Dimethylamino-pyrrolidin-1-ylmethyl)-3-trifluoromethyl-benzoylamino]-2-methyl-benzylamino}-1H-pyrrolo[2,3-b]pyridine-2-carboxylic acid], the inhibition at 0.1 µM in assay [1] is not below 50%; in assay [2] it was less than 50%; in assay [3], not below 50%; in assay [4], not below 50%.

As to `CC(=O)c1cc2cc(NCc3cc(NC(=O)c4ccc(C(F)(F)F)nc4)ccc3C)cnc2[nH]1` [OR0886, N-{3-[(2-Acetyl-1H-pyrrolo[2,3-b]pyridin-5-ylamino)-methyl]-4-methyl-phenyl}-6-trifluoromethyl-nicotinamide], the inhibition at 0.1 µM in assay [5] was not below 50%; in assay [1], less than 50%; in assay [2], less than 50%; in assay [4] it was less than 50%; in assay [8], less than 50%. Also, the EC50 was not below 1000 nM in assay [6] (HepG2, 72 hr, MTT) and 100 to 1000 nM in assay [7] (72 h).

Turning to `CC(=O)c1cc2cc(NCc3cc(NC(=O)c4ccnc(C(F)(F)F)c4)ccc3C)cnc2[nH]1` [OR0887, N-{3-[(2-Acetyl-1H-pyrrolo[2,3-b]pyridin-5-ylamino)-methyl]-4-methyl-phenyl}-2-trifluoromethyl-isonicotinamide], the inhibition at 0.1 µM in assay [1] was less than 50%; in assay [2] it was not below 50%; in assay [3], less than 50%; in assay [4], not below 50%. In addition, in assay [7] (72 h), the 50% effective concentration (EC50) lay within 100 to 1000 nM.

With `CC(=O)c1cc2cc(NCc3cc(NC(=O)c4cncc(C)c4)ccc3C)cnc2[nH]1` [OR0888, N-{3-[(2-Acetyl-1H-pyrrolo[2,3-b]pyridin-5-ylamino)-methyl]-4-methyl-phenyl}-5-methyl-nicotinamide], the inhibition at 0.1 µM was not below 50% in assay [5]; less than 50% in assay [1]; not below 50% in assay [2]; less than 50% in assay [3]; not below 50% in assay [4]; not below 50% in assay [8]. Further, the EC50 in assay [6] (HepG2, 72 hr, MTT) is not below 1000 nM; in assay [7] (72 h) it was 100 to 1000 nM.

Take `CC(=O)c1cc2cc(NCc3cc(NC(=O)c4cccc(C(F)(F)F)c4)ccc3C)cnc2[nH]1` [OR0893, N-{3-[(2-Acetyl-1H-pyrrolo[2,3-b]pyridin-5-ylamino)-methyl]-4-methyl-phenyl}-3-trifluoromethyl-benzamide]: the inhibition at 0.1 µM in assay [1] was less than 50%; in assay [2], not below 50%; in assay [3] it was not below 50%; in assay [4] it was not below 50%. Also, the EC50 in assay [6] (HepG2, 72 h) was not above 100 nM; in assay [7] (72 h), 100 to 1000 nM.

Consider `CC(=O)c1cc2cc(NCc3ccc(F)c(NC(=O)c4cncc(C(F)(F)F)c4)c3)cnc2[nH]1` [OR0894, N-{5-[(2-Acetyl-1H-pyrrolo[2,3-b]pyridin-5-ylamino)-methyl]-2-fluoro-phenyl}-5-trifluoromethyl-nicotinamide], for which the inhibition at 0.1 µM in assay [1] was not below 50%; in assay [2] it was not below 50%; in assay [3], less than 50%; in assay [4], not below 50%. In addition, in assay [7] (72 hr, MTT), the EC50 is not below 1000 nM.

Turning to `CC(=O)c1cc2cc(NCc3cccc(C(=O)Nc4cccnc4)c3)cnc2[nH]1` [OR0917, 3-[(2-Acetyl-1H-pyrrolo[2,3-b]pyridin-5-ylamino)-methyl]-N-pyridin-3-yl-benzamide], the inhibition at 0.1 µM is not below 50% in assay [1], less than 50% in assay [2], not below 50% in assay [3] and not below 50% in assay [4]. For the same compound, the EC50 in assay [6] (HepG2, 72 hr, MTT) is not below 1000 nM; in assay [7] (72 hr, MTT), not below 1000 nM.

Consider `CC(=O)c1cc2cc(NCc3cccc(NC(=O)c4ccc(CN5CC[C@H](N(C)C)C5)c(C(F)(F)F)c4)c3)cnc2[nH]1` [OR0927, N-{3-[(2-Acetyl-1H-pyrrolo[2,3-b]pyridin-5-ylamino)-methyl]-phenyl}-4-((S)-3-dimethylamino-pyrrolidin-1-ylmethyl)-3-trifluoromethyl-benzamide], for which the inhibition at 0.1 µM was not below 50% in assay [1], less than 50% in assay [2], not below 50% in assay [3] and not below 50% in assay [4]. In addition, the EC50 in assay [6] (HepG2, 72 h) fell in the range of 100 to 1000 nM; in assay [7] (72 h), 100 to 1000 nM.

Consider `CC(=O)c1cc2cc(NCc3cc(NC(=O)c4cncc(C(F)(F)F)c4)ccc3F)cnc2[nH]1` [OR0970, N-{5-[(2-Acetyl-1H-pyrrolo[2,3-b]pyridin-5-ylamino)-methyl]-4-fluoro-phenyl}-5-trifluoromethyl-nicotinamide], for which the inhibition at 0.1 µM is less than 50% in assay [1], not below 50% in assay [2], less than 50% in assay [3] and not below 50% in assay [4]. Moreover, the concentration for a half-maximal effect (EC50) is 100 to 1000 nM in assay [6] (HepG2, 72 h) and not below 1000 nM in assay [7] (72 hr, MTT).

As for `CC(=O)c1cc2cc(NCc3cc(NC(=O)c4ccc(CN5CC[C@H](N(C)C)C5)c(C(F)(F)F)c4)ccc3F)cnc2[nH]1` [OR0971, N-{3-[(2-Acetyl-1H-pyrrolo[2,3-b]pyridin-5-ylamino)-methyl]-4-fluoro-phenyl}-4-((S)-3-dimethylamino-pyrrolidin-1-ylmethyl)-3-trifluoromethyl-benzamide], the inhibition at 0.1 µM was not below 50% in assay [1], less than 50% in assay [2], not below 50% in assay [3] and not below 50% in assay [4]. The EC50 in assay [6] (HepG2, 72 h) was 100 to 1000 nM; in assay [7] (72 hr, MTT), not below 1000 nM.

On to `CC(=O)c1cc2cc(NCc3cc(NC(=O)c4ccc(CN5CCC(N(C)C)C5)c(F)c4)ccc3C)cnc2[nH]1` (stereo not shown) [OR0973, N-{3-[(2-Acetyl-1H-pyrrolo[2,3-b]pyridin-5-ylamino)-methyl]-4-methyl-phenyl}-4-(3-dimethylamino-pyrrolidin-1-ylmethyl)-3-fluoro-benzamide], for which the inhibition at 0.1 µM in assay [1] was less than 50%; in assay [2], not below 50%; in assay [3], not below 50%; in assay [4], not below 50%. Moreover, the EC50 is 100 to 1000 nM in assay [6] (HepG2, 72 h) and not below 1000 nM in assay [7] (72 hr, MTT).

Regarding `CC(=O)c1cc2cc(NC(=O)c3cccc(CNC(=O)c4ccc(CN5CCN(C)CC5)c(C(F)(F)F)c4)c3)cnc2[nH]1` [OR0984, N-[3-(2-Acetyl-1H-pyrrolo[2,3-b]pyridin-5-ylcarbamoyl)-benzyl]-4-(4-methyl-piperazin-1-ylmethyl)-3-trifluoromethyl-benzamide], the inhibition at 0.1 µM in assay [5], in assay [1], in assay [2], in assay [3], in assay [4] and in assay [8] was less than 50% throughout. Also, the EC50 in assay [6] (HepG2, 72 hr, MTT) was not below 1000 nM.
